Converted amounts (≈) assume the structure as drawn. “And” between values parts separate entries of the source, which are not always exact repeats. Equal values may be shown once.
Assays:
Neovison vison = conditions: reproduction developmental; oral; diet; F; reproduction
Anatidae = conditions: short-term; duration: 17 days; oral; feed; M; histopathology: nonneoplastic
Meleagris sp. = conditions: short-term; duration: 3 weeks; oral; feed; F; body weight
Gallus gallus = conditions: for NOAEL: oral, diet, body weight
Canidae = conditions: chronic, oral
Phasianus sp. = conditions: acute; oral; unspecified; mortality
Colinus virginianus = conditions: acute, oral, mortality
Daphnia magna = conditions: chronic/long-term; duration: 21 days; reproduction
Pimephales promelas = conditions: chronic/long-term
Lepomis macrochirus = conditions: acute; duration: 96 hours; mortality
Bibionidae = conditions: chronic/long-term
Sus scrofa = conditions: Not specified
Ovis sp. = conditions: for LD50: acute, mortality
Danio rerio = conditions: acute; duration: 96 hours; mortality
Neomysis kadiakensis = conditions: chronic/long-term; duration: 28 days; other
Cyprinodon variegatus = conditions: chronic/long-term; duration: 90 days; development
Mus musculus = conditions: chronic; duration: 104 weeks; clinical signs
Pontoscolex corethrurus = conditions: reproductive; duration: 56 days; mortality
Apis mellifera = conditions: acute, mortality
Folsomia candida = conditions: chronic/long-term; duration: 28 days; reproduction
Hypoaspis aculeifer = conditions: chronic/long-term; duration: 14 days; mortality

`O=c1cc(O)c1=O` [Moniliformin] showed an NOAEL (Neovison vison) of 0.92 mg/kg-day, an NOAEL (Rattus norvegicus; short-term, duration: 28 days, oral, gavage, M, Sprague-Dawley, clinical signs) of 6 mg/kg-day and an NOAEL (Anatidae) of 2.3 mg/kg-day. It also gave an NOAEL (Meleagris sp.) of 1.6 mg/kg-day, an NOAEL (Gallus gallus; chronic, duration: 14 months) of 3.8 mg/kg-day and an NOAEL (Gallus gallus; subchronic, duration: 7 weeks) of 1.4 mg/kg-day.

With `C[C@@H]1C/C=C/C=C/C=C/C=C/[C@H](O[C@@H]2O[C@H](C)[C@@H](O)[C@H](N)[C@@H]2O)C[C@@H]2O[C@](O)(C[C@@H](O)C[C@H]3O[C@@H]3/C=C/C(=O)O1)C[C@H](O)[C@H]2C(=O)O` [Natamycin] the NOAEL (Canidae; duration: 2 years, diet, M/F, Beagle, body weight) was 6.25 mg/kg-day and the NOAEL (Rattus norvegicus; chronic, duration: 2 years, oral, diet, growth) was 22.4 mg/kg-day.

With `CNC(=O)CSP(=O)(OC)OC` [Omethoate] the NOAEL (Canidae; duration: 12 months, gavage, Dog Other, clinical chemistry) was 0.025 mg/kg-day, the LC50 (Rattus norvegicus; acute, duration: 4 hours, inhalation, mortality) was 0.287 µg/mL (≈ 1.35 µM) and the NOAEL (Rattus norvegicus; acute, oral, clinical signs) was 0.2 mg/kg-day. The LOAEL (Rattus norvegicus; chronic, duration: 2 years, clinical chemistry) was 0.04 mg/kg-day, the NOAEL (Rattus norvegicus; reproduction developmental, clinical chemistry) was 0.03 mg/kg-day and the LD50 (Phasianus sp.) was 29 mg/kg. For the same molecule, the LD50 (Colinus virginianus) was 9.9 mg/kg.

`CCOc1cc(Oc2ccc(C(F)(F)F)cc2Cl)ccc1[N+](=O)[O-]` [Oxyfluorfen] was tested, and the NOEC (Daphnia magna) was 13 µg/L, the NOEC (Pimephales promelas; duration: 34 days, reproduction) was 38 µg/L and the LC50 (Lepomis macrochirus) was 0.21 µg/mL (≈ 0.581 µM). The NOEC (Bibionidae; duration: 28 days, development) was 80 µg/L and the NOEC (Landoltia sp.; acute, duration: 14 days, frond number) was 0.00195 mg/L.

For `C=C(C)[C@@H]1NC(=O)[C@@H](NC)[C@@H](O)c2cc(Cl)c(O)c(c2)O[C@](C)(CC)[C@@H](C(=O)N2CC=C[C@H]2C(=O)N/C(C(=O)N/C(=C/C(=O)O)C(=O)O)=C(\C)CC)NC1=O` [Phomopsin], the LD50 (Sus scrofa; acute, mortality) was 0.848 mg/kg, the LD50 (Ovis sp.; injection, subcutaneous) was ≥ 0.017 mg/kg and the LD50 (Ovis sp.; oral) was 1.34 mg/kg. For the same molecule, the LOAEL (Ovis sp.; subchronic, clinical chemistry) was 12.5 mg/kg-day.

`P` [Phosphine] gave an LC50 (Danio rerio) of 0.048 µg/mL (≈ 1.41 µM), an NOAEL (Rattus norvegicus; chronic, duration: 2 years, inhalation) of 1.1 mg/kg-day and an NOAEL (Rattus norvegicus; reproduction developmental, inhalation, mortality) of 1.9 mg/kg-day. It also gave an NOAEL (Rattus norvegicus; subchronic, duration: 90 days, inhalation, mortality) of 1.1 mg/kg-day.

In the case of `Cc1nc(N(C)C)nc(OC(=O)N(C)C)c1C` [Pirimicarb], the LD50 (Colinus virginianus; duration: 2 hours, gavage, M/F) is reported as 20 mg/kg and the LD50 (Colinus virginianus; diet) is reported as 370 mg/kg.

`[I-].[K+]` [Potassium iodide] showed an LEL (Sus scrofa; repeat dose other, no effects) of 8 mg/kg-day and an LEL (Gallus gallus; repeat dose other, no effects) of 5 mg/kg-day.

Molecule `CC(C)(C)c1ccc(CSc2cnn(C(C)(C)C)c(=O)c2Cl)cc1` [Pyridaben] has an NOEC (Anas platyrhynchos; chronic/long-term) of 10 mg/kg-day, an NOEC (Anas platyrhynchos; short-term, oral, feed, mortality) of 659 mg/kg-day and an NOEC (Rattus norvegicus; chronic, M, body weight) of 3.2 mg/kg-day. The LD50 (Colinus virginianus) was > 2250 mg/kg-day.

`Fc1ccc(Oc2ccnc3cc(Cl)cc(Cl)c23)cc1` [Quinoxyfen] gave an NOEC (Neomysis kadiakensis) of 0.00152 mg/L, an NOEC (Cyprinodon variegatus) of 0.00409 mg/L and an NOEC (Bibionidae; duration: 27 days) of 128 µg/L. For the same molecule, the NOEC (Landoltia sp.; chronic/long-term, duration: 14 days) was 0.149 mg/L.

Work on `Oc1cccc(O)c1` [Resorcinol] yielded an NOAEL (Mus musculus) of 36 mg/kg-day and an NOAEL (Rattus norvegicus; chronic, duration: 103 weeks, oral, gavage, Fischer 344, neurology) of 36 mg/kg-day.

For `[Al+3].[Na+].[O-][Si]([O-])([O-])[O-]` [Sodium aluminium silicate], the NOEC (Daphnia magna) was 10000 µg/L, the LC50 (Danio rerio) was > 100 µg/mL and the NOEC (Pimephales promelas; duration: 30 days, growth) was 86700 µg/L.

For `O=C1[N-]S(=O)(=O)c2ccccc21.[Na+]` [Sodium saccharin], the NOEC (Pontoscolex corethrurus) was 100 mg/kg.

For `CN1COCN(Cc2cnc(Cl)s2)/C1=N/[N+](=O)[O-]` [Thiamethoxam], the LD50 (Apis mellifera; dermal) was 0.024 µg/piece (2×) and 0.0121 µg/piece, the LD50 (Apis mellifera; duration: 48 hours, oral, unspecified) was 0.00631 µg/piece and the LD50 (Apis mellifera; duration: 72 hours, dermal) was 5.55 g/ha. The LD50 (Apis mellifera; oral, unspecified) was 0.005 µg/piece (3×) and 0.00936 µg/piece.

`C[C@H]1CCCC(=O)CCC/C=C/c2cc(O)cc(O)c2C(=O)O1` [Zearalenone] was tested, and the NOEL (Sus scrofa; reproduction developmental, F, morphology) was 0.01 mg/kg-day.

With `C=C(C)[C@H]1CC=C(C)C(=O)C1` [d-Carvone] the NOEC (Folsomia candida) was 25 mg/kg, the LC50 (Danio rerio) was 56 µg/mL (≈ 373 µM) and the LD50 (Rattus norvegicus; acute, oral, mortality) was > 2000 mg/kg-day. For the same molecule, the NOAEL (Rattus norvegicus; reproduction developmental, organ weight) was 30 mg/kg-day, the NOEC (Hypoaspis aculeifer) was ≥ 200 mg/kg and the NOEC (Landoltia sp.; acute, duration: 192 hours, frond number) was 4.6 mg/L.

Work on `Clc1ccc(C(c2ccc(Cl)cc2)C(Cl)Cl)cc1` [p,p'-DDD] yielded an NOAEL (Anas platyrhynchos; not reported, other) of 0.06 mg/kg-day.

In the case of `ClC(Cl)=C(c1ccc(Cl)cc1)c1ccc(Cl)cc1` [p,p'-DDE], the LOAEL (Anas platyrhynchos; reproductive, development) is reported as 0.6 mg/kg-day.

Reference: EPA's ToxValDB 9.5
